pKd: −log10 of the molar value. Where only a bound is given, the exact number is not on record here.

The source of these data is patent US20240343747A1, “Heteroaryl compounds as inhibitors of TYK2, composition and application thereof” (Accro Bioscience (HK) Limited, priority 2021, published 2024).

One data set concerns the target JAK2 JH1 (Homo sapiens (Human), UniProt O60674). Briefly: Competitive binding assay (kinase-tagged phage, qPCR), JAK2 JH1. How it is done:
For most assays, kinase-tagged T7 phage strains were prepared in an E. coli host derived from the BL21 strain. E. coli were grown to log-phase and infected with T7 phage and incubated with shaking at 32° C. until lysis. The lysates were centrifuged and filtered to remove cell debris. The remaining kinases were produced in HEK-293 cells and subsequently tagged with DNA for qPCR detection. Streptavidin coated magnetic beads were treated with biotinylated small molecule ligands for 30 minutes at room temperature to generate affinity resins for kinase assays. The liganded beads were blocked with excess biotin and washed with blocking buffer (SeaBlock (Pierce), 1% BSA, 0.05% Tween 20, 1 mM DTT) to remove unbound ligand and to reduce non-specific binding. […] Test compounds were prepared as 111X stocks in 100% DMSO. Dissociation constants (Kds) were determined using an 11-point 3-fold compound dilution series with three DMSO control points. […] The kinase concentration in the eluates was measured by qPCR.
An 11-point 3-fold serial dilution of each test compound was prepared in 100% DMSO at 100× final test concentration and subsequently diluted to 1× in the assay (final DMSO concentration=1%). Most Kds were determined using a compound top concentration=30,000 nM. […]
Binding constants (Kds) were calculated with a standard dose-response curve using the Hill equation: […]
(Quantitative PCR measures a nucleic acid by following its amplification.)

Another data set concerns TYK2/JAK2 pathway. Briefly: Selectivity: TYK2/JAK2 pathway, IL-12-induced p-STAT4 in mouse spleen cells, western blot. It counts as cell-based, mice. The procedure: The spleen of mice was isolated and ground into single cells with bent tweezers. The single cells of the spleen were centrifuged for 5 minutes (400 g), and erythrocytes were lysed with ACK solution and neutralized in 1640 medium, centrifuged for 5 minutes (400 g), and then re-suspended in 1640 medium. The spleen single cell suspension was counted and incubated to a 6-well plate (5 million/well), the compound to be tested was added for 2 hours, and then IL-12 (50 ng/mL) was added to stimulate cells for 1 h. The cells were collected and lysed with protein lysate. The protein was quantitatively tested by BCA kit. Finally, p-STAT4/STAT4 and internal reference protein β-actin were detected by western blot.
(In western blotting, separated proteins are transferred to a membrane and probed.)

Data set [1] in a line: Metabolic stability test, human liver microsomes. It counts as in vitro ADME. The procedure: (§1) • 1. Buffer A: 1.0 L of 0.1 M monobasic Potassium Phosphate buffer containing 1.0 mM EDTA • Buffer B: 1.0 L of 0.1 M Dibasic Potassium Phosphate buffer containing 1.0 mM EDTA • Buffer C: 0.1 M Potassium Phosphate buffer, 1.0 mM EDTA, at about pH 7.4 by titrating 700 mL of Buffer B with Buffer A while monitoring with the pH meter. • 2. Reference compounds (Ketanserin) and test compounds spiking solution: • 500 µM spiking solution: add 10 μL of 10 mM DMSO stock solution into […] ACN. • 1.5 µM spiking solution in microsomes (0.75 mg/mL): add 1.5 μL of 500 µM spiking solution and 18.75 μL of 20 mg/mL liver microsomes into 479.75 μL of Buffer C on ice. • 3. Prepare NADPH stock solution (6 mM) by dissolving NADPH into buffer C. • 4. Dispense 30 μL of 1.5 µM spiking solution containing 0.75 mg/mL microsomes solution to the assay plates designated for different time points (0-, 5-, 15-, 30-, 45-min) on ice. • 5. For 0-min, add 135 μL of ACN containing IS to the wells of 0-min plate and then add 15 μL of NADPH stock solution (6 mM). • 6. Pre-incubate all other plates at 37° C. for 5 minutes. • 7. Add 15 μL of NADPH stock solution (6 mM) to the plates to start the reaction and timing. • 8. At 5-min, 15-min, 30-min, and 45-min, add 135 μL of ACN containing IS to the wells of corresponding plates, respectively, to stop the reaction. • 9. After quenching, shake the plates at the vibrator (IKA, MTS 2/4) for 10 min (600 rpm/min) and then centrifuge at 5594 g for 15 min (Thermo Multifuge×3R). • 10. Transfer 50 μL of the supernatant from each well into a 96-well sample plate containing 50 μL of ultra pure water (Millipore, ZMQS50F01) for LC/MS analysis.
For orientation: Liver microsomes are vesicles of endoplasmic reticulum, rich in cytochrome P450 enzymes.

Data set [2] is described as follows: Metabolic stability test, rat liver microsomes. It counts as in vitro ADME. The procedure: as §1

Sequence of JAK2 JH1 (O60674 849-1124): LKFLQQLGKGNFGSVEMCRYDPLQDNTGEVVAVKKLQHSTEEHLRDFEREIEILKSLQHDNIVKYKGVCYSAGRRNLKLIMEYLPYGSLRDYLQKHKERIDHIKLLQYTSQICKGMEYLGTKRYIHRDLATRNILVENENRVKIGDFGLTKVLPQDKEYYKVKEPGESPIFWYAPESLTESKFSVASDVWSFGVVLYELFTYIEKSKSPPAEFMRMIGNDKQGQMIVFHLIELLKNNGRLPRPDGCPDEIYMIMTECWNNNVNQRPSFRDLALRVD

Take `CCC(=O)c1cnc(NC(=O)C2CC2)cc1Nc1cccc(-c2cc(P(=O)(C3CC3)C3CC3)n(C)n2)c1OC` [Compound B37, N-(4-((3-(5-(dicyclopropylphosphoryl)-1-methyl-1H-pyrazol-3-yl)-2-methoxyphenyl)amino)-5-propionylpyridin-2-yl)cyclopropanecarboxamide]: the pKd (commonly the Kd on a negative log10 scale, so that one unit is a factor of ten) on JAK2 JH1 was under 4.52. For the same compound, the “inhibition of TYK2/JAK2 pathway compared with BMS986165” value in the data set with TYK2/JAK2 pathway (IL-12) was “better than BMS986165”. Besides, the “inhibition of downstream STAT4 phosphorylation induced by IL-12” value with TYK2/JAK2 pathway (IL-12 50 ng/mL, western blot) was “effectively inhibit”.
Consider `CCC(=O)c1cnc(NC(=O)C2CC2)cc1Nc1cccc(-c2cc(P(C)(C)=O)n(C)n2)c1OC` [Compound B2, N-(4-((3-(5-(dimethylphosphoryl)-1-methyl-1H-pyrazol-3-yl)-2-methoxyphenyl)amino)-5-propionylpyridin-2-yl)cyclopropanecarboxamide], for which the “stability in human liver microsomes (in words)” value in data set [1] (conclusion from Table 5) is “good stability”. In addition, the “CL HLM” value in data set [1] (human liver microsomes) is under 8.6 mL/min/kg. For the same compound, the half-life at 1 μM in data set [1] (pH 7.4, human liver microsomes, read-out: T1/2 HLM) is over 2.42 h; in data set [2] (pH 7.4, rat liver microsomes, read-out: T1/2 RLM), 1.68 h. The “stability in rat liver microsomes (in words)” value in data set [2] (conclusion from Table 5) is given as “good stability”. Moreover, the “CL RLM” value in data set [2] (rat liver microsomes) amounted to 24.6 mL/min/kg.
